The target in one experiment is EZH1 (Homo sapiens, UniProt Q92800). As to the kind of experiment: AlphaLISA enzyme activity inhibition, EZH1. The experiment is classed as biochemical. To be noted: for inhibition at 0.005 µM: 5nM test substance; for inhibition at 0.01 µM: 10nM test substance. The protocol: (§1) In order to confirm the EZH1 and/or EZH2 activity inhibitory effect of the 1,3-benzodioxole derivative compounds represented by chemical formula I of the present invention, the activity was measured using an AlphaLISA test method. The test substance dissolved in dimethylsulfoxide (DMSO) was diluted in a test solution (20 mM Tris pH 8.0, 0.1% BSA, 0.01% Triton X-100, 0.5 mM DTT) according to a final treatment concentration (5 nM or 10 nM) and mixed with EZH1 and EZH2, respectively, and then histone H3 peptide and S-adenosylmethionine (SAM) were added to initiate an enzyme reaction. An acceptor bead was added thereto after reaction for two hours and subjected to an additional reaction for one hour, after which a donor bead was added thereto. After an additional reaction for 30 minutes, the reaction was completed. An activity was measured using the Magellan program on a Spark10M instrument. DMSO was used as a control group, an inhibition rate of enzyme activity was calculated using a following equation, and the results thereof are shown in Table 1 below. [formula]
Sequence of EZH1 (Q92800 whole entry, species assumed): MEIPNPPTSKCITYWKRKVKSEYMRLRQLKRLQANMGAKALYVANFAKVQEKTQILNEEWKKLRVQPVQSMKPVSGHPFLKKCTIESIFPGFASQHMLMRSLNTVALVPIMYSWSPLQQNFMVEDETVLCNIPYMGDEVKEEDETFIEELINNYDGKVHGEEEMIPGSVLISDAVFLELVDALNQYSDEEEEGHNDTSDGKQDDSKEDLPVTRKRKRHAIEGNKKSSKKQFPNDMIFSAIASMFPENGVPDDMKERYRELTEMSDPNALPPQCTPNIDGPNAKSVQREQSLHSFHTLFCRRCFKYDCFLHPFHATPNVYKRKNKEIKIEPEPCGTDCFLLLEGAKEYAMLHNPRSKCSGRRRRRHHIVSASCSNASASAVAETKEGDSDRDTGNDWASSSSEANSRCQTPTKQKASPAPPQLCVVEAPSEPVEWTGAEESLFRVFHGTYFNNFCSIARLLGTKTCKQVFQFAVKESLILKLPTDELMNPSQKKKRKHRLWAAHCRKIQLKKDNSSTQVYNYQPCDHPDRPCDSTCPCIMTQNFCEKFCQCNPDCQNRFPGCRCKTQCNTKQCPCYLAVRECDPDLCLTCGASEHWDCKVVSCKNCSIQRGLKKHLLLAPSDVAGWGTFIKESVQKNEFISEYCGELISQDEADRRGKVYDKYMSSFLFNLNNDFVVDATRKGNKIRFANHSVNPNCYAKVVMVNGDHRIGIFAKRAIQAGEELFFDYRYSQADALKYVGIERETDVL
Sequence of EZH1 (O75530 whole entry partner, species assumed): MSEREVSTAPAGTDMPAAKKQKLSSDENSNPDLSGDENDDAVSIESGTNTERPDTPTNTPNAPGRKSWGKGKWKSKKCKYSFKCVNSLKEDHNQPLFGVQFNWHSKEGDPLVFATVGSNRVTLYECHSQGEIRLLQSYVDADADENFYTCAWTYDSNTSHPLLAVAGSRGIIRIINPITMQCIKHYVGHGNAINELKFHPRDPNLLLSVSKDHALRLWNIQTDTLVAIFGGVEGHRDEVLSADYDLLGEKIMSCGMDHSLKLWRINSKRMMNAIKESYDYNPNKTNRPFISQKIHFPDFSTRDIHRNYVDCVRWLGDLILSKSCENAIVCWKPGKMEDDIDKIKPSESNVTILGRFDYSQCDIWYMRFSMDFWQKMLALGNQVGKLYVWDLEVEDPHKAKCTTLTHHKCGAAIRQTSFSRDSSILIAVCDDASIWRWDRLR
Sequence of EZH1 (Q15022 whole entry partner, species assumed): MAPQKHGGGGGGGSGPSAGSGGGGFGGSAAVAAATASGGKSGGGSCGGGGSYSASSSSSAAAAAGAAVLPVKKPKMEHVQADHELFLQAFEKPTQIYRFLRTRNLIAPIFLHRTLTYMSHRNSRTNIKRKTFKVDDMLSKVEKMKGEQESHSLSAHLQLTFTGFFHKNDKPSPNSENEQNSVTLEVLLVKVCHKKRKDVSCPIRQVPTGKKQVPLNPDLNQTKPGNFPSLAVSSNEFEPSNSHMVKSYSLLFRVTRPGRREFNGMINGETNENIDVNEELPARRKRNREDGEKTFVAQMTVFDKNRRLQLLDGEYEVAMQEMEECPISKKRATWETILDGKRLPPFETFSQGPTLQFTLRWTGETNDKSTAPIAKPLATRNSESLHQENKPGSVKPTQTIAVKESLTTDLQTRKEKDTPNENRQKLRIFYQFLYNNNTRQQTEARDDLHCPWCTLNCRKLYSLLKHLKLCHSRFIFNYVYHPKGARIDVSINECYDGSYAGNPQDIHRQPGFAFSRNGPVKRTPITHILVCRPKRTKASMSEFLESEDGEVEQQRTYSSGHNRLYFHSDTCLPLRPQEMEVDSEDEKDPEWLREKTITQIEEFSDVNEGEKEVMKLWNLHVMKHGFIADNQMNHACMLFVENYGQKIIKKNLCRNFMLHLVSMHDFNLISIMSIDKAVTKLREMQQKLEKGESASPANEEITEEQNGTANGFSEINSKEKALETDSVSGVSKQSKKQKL
For orientation: In Alpha technology, singlet oxygen from a donor bead excites a nearby acceptor bead.

Another experiment has as its target EZH2 (Homo sapiens, UniProt Q15910). As to the kind of experiment: AlphaLISA enzyme activity inhibition, EZH2. It is filed as biochemical. To be noted: for inhibition at 0.005 µM: 5nM test substance; for inhibition at 0.01 µM: 10nM test substance. The protocol: as §1
For another experiment, the system named is Lovo cells. As to the kind of experiment: Cancer cell proliferation inhibition (Cell Counting Kit-8), colorectal cancer cell line. To be noted: Homo sapiens, LoVo, 264 h, 1000 nM, cultured seven to 11 days; read-out: % inhibition rate LoVo. It is filed as cell-based. In short, it runs like this: (§2)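 Cells seeded at 100-1,000/well in medium with 10% FBS and treated with 1000 nM test substance for 7-11 days. Viability measured with Cell Counting Kit-8; % inhibition = {1−(test/control)} × 100.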
(In general: Tetrazolium assays rely on reduction of a dye to a coloured formazan, in cell work by metabolically active cells.)

Another experiment concerns G401 cells. As to the kind of experiment: Cancer cell proliferation inhibition (Cell Counting Kit-8), rhabdoid tumor cell line. It is filed as cell-based. The conditions noted are these: 1000 nM, cultured seven to 11 days; for inhibition at 1 µM: Homo sapiens, G-401, 264 h, read-out: % inhibition rate G401. In short, it runs like this: (§3)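 Cells grown in RPMI1640, McCoy's 5a, L-15 or DMEM with 10% FBS, seeded at 100 to 1,000 cells/well and treated with test substance at 1000 nM for 7 to 11 days. Viability read by CCK-8; % inhibition = {1−(test/control)} × 100.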

The test system of the next experiment is MKN-45 cells. Description: Cancer cell proliferation inhibition (Cell Counting Kit-8), gastric cancer cell line. The conditions noted are these: Homo sapiens, MKN-45, 264 h, 1000 nM, cultured seven to 11 days; read-out: % inhibition rate MKN -45. It is filed as cell-based. In short, it runs like this:
as §3

For the next experiment, the system named is SW-13 cells. As to the kind of experiment: Cancer cell proliferation inhibition (Cell Counting Kit-8), adrenal cancer cell line. The experiment is classed as cell-based. The conditions noted are these: Homo sapiens, SW13, 264 h, 1000 nM, cultured seven to 11 days; read-out: % inhibition rate SW-13. The method in brief: as §2
The next experiment deals with MIA-PaCa-2 cells. Description: Cancer cell proliferation inhibition (Cell Counting Kit-8), pancreatic cancer cell line. It is filed as cell-based. To be noted: Homo sapiens, MIA PaCa-2, 264 h, 1000 nM, cultured seven to 11 days; read-out: % inhibition rate MIA-Paca2. In short, it runs like this: as §2
The next experiment relates to NCI-H1299 cells. Description: Cancer cell proliferation inhibition (Cell Counting Kit-8), lung cancer cell line. It is filed as cell-based. To be noted: Homo sapiens, NCI-H1299, 264 h, 1000 nM, cultured seven to 11 days; read-out: % inhibition rate NCI-H129 9. The method in brief:
as §2

The source of these data is patent EP4740948A1 (Dong Wha Pharm. Co., Ltd., priority 2023, dated 2025).

Sequence of EZH2 (Q15910 whole entry, species assumed): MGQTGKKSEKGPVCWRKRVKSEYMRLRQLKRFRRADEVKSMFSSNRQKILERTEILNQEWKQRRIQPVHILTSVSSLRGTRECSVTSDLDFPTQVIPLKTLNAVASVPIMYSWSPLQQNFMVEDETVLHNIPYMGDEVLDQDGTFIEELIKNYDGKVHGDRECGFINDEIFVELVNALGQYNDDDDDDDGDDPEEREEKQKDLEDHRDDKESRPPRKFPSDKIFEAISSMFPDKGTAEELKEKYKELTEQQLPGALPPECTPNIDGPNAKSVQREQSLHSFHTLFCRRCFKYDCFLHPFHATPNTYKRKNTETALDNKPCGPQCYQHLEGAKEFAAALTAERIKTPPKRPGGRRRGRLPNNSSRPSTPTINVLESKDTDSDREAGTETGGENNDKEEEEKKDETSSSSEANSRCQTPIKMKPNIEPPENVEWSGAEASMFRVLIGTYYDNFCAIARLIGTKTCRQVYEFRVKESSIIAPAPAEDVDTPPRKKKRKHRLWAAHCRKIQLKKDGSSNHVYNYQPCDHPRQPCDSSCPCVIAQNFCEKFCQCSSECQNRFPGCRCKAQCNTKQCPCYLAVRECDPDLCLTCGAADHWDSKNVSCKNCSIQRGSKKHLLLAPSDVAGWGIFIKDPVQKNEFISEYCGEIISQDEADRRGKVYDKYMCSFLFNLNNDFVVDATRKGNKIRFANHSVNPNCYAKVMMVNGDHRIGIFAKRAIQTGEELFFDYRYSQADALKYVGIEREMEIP
Sequence of EZH2 (O75530 whole entry partner, species assumed): as the sequence (O75530 whole entry partner, species assumed) above
Sequence of EZH2 (Q15022 whole entry partner, species assumed): as the sequence (Q15022 whole entry partner, species assumed) above

For `CSc1cc(C)[nH]c(=O)c1CNC(=O)c1cc(-c2ccc3c(c2)OC(F)(F)O3)c2c(c1C)OC(C)(C1CCN(CC(F)(F)F)CC1)O2` (stereo not shown) [Compound 93, 2',2'-difluoro-2,7-dimethyl-N-((6-methyl-4-(methylthio)-2-oxo-1,2-dihydropyridin-3-yl)methyl)-2-(1-(2,2,2-trifluoroethyl)piperidin-4-yl)-[4,5'-bibenzo[d][1,3]dioxole]-6-carboxamide], the inhibition at 0.005 µM against EZH1 was 16.8%; against EZH2, 32.2%. Moreover, the results for the inhibition at 0.01 µM on EZH1 and at EZH2 were 12.7% and 37.9%, respectively. The inhibition at 1 µM in the experiment with Lovo cells is not below 70%; in the experiment with G401 cells, not above 30%; with MKN-45 cells, not above 30%; in the experiment with SW-13 cells, 30 to 70%; with MIA-PaCa-2 cells, not above 30%; in the experiment with NCI-H1299 cells, not above 30%.

`CSc1cc(C)[nH]c(=O)c1CNC(=O)c1cc(-c2ccsc2)c2c(c1C)OC(C)([C@H]1CC[C@H](N(C)C)CC1)O2` (relative stereo) [Compound 11, 2-(trans-4-(dimethylamino)cyclohexyl)-2,4-dimethyl-N-((6-methyl-4-(methylthio)-2-oxo-1,2-dihydropyridin-3-yl)methyl)-7-(thiophen-3-yl)benzo[d][1,3]dioxole-5-carboxamide]: the inhibition at 0.005 µM worked out at 82.9% against EZH1 and 98.9% at EZH2. The inhibition at 1 µM is not below 70% with Lovo cells; 30 to 70% in the experiment on G401 cells; not above 30% with MKN-45 cells; 30 to 70% in the experiment on SW-13 cells; not above 30% in the experiment on MIA-PaCa-2 cells; 30 to 70% in the experiment with NCI-H1299 cells.

Take `CCCCN(C)c1ncc(-c2cc(C(=O)NCc3c(SC)cc(C)[nH]c3=O)c(C)c3c2OC(C)(C2CCN(CC(F)(F)F)CC2)O3)cn1` (stereo not shown) [Compound 99]: the inhibition at 0.005 µM was found to be 37.1% at EZH1 and 62.4% on EZH2. The results for the inhibition at 0.01 µM against EZH1 and on EZH2 were 42.9% and 76.5%, respectively. The inhibition at 1 µM in the experiment on Lovo cells is not below 70%; in the experiment with G401 cells, 30 to 70%; with MKN-45 cells it was 30 to 70%; in the experiment on SW-13 cells, 30 to 70%; in the experiment with MIA-PaCa-2 cells, not above 30%; in the experiment with NCI-H1299 cells, not above 30%.

For the molecule `CCN(C)c1ncc(-c2cc(C(=O)NCc3c(SC)cc(C)[nH]c3=O)c(C)c3c2OC(C)(C2CCN(CC(F)(F)F)CC2)O3)cn1` (stereo not shown) [Compound 78], the inhibition at 0.005 µM against EZH1 is 53.1%; against EZH2, 86.1%. The inhibition at 0.01 µM was 79.3% at EZH1 and 98.1% against EZH2. The inhibition at 1 µM was not below 70% in the experiment on Lovo cells; not below 70% with G401 cells; 30 to 70% in the experiment on MKN-45 cells; not above 30% in the experiment on SW-13 cells; not above 30% in the experiment with MIA-PaCa-2 cells; not above 30% in the experiment with NCI-H1299 cells.

As to `CSc1cc(C)[nH]c(=O)c1CNC(=O)c1cc(-c2ccc(N3C[C@@H](C)O[C@@H](C)C3)nc2)c2c(c1C)OC(C)(C1CCN(C(=O)C(F)(F)F)CC1)O2` (single isomer, unassigned) [Compound 59], the inhibition at 0.005 µM against EZH1 turned out to be 42.2%; against EZH2, 98.5%. Besides, the inhibition at 0.01 µM at EZH1 came to 5.7%; on EZH2 it was 99.5%. Further, the inhibition at 1 µM is not below 70% in the experiment on Lovo cells; 30 to 70% with MKN-45 cells; 30 to 70% in the experiment with SW-13 cells; not above 30% in the experiment with MIA-PaCa-2 cells; 30 to 70% with NCI-H1299 cells. Also, in the experiment on G401 cells (1 µM), the “% inhibition rate G401” value is reported as “+++ (+++: ≥70%)”.

With `CCN(C)c1ccc(-c2cc(C(=O)NCc3c(SC)cc(C)[nH]c3=O)c(C)c3c2OC(C)(C2CCN(CC(F)F)CC2)O3)cn1` (single isomer, unassigned) [Compound 88, 2-(1-(2,2-difluoroethyl)piperidin-4-yl)-7-(6-(ethyl(methyl)amino)pyridin-3-yl)-2,4-dimethyl-N-((6-methyl-4-(methylthio)-2-oxo-1,2-dihydropyridin-3-yl)methyl)benzo[d][1,3]dioxole-5-carboxamide], the inhibition at 0.005 µM against EZH1 was 45.2%; on EZH2 it was 99.5%. For the same molecule, the inhibition at 0.01 µM on EZH1 turned out to be 62%; on EZH2, 99.9%. Also, the inhibition at 1 µM in the experiment on Lovo cells was not below 70%; in the experiment on G401 cells, not below 70%; with MKN-45 cells it was 30 to 70%; with SW-13 cells, 30 to 70%; in the experiment on MIA-PaCa-2 cells, not above 30%; in the experiment on NCI-H1299 cells, not above 30%.

With `CSc1cc(C)[nH]c(=O)c1CNC(=O)c1cc(-c2cnc(N3C[C@@H](C)O[C@@H](C)C3)nc2)c2c(c1C)OC(C)([C@H]1CC[C@H](N(C)C)CC1)O2` (stereo partly shown) [Compound 2], the inhibition at 0.005 µM against EZH1 is 82%; against EZH2 it was 92.9%. Besides, the inhibition at 1 µM was 30 to 70% in the experiment on Lovo cells; 30 to 70% in the experiment with G401 cells; not above 30% with MKN-45 cells; 30 to 70% in the experiment with SW-13 cells; not above 30% with MIA-PaCa-2 cells; not above 30% in the experiment with NCI-H1299 cells.

For `CSc1cc(C)[nH]c(=O)c1CNC(=O)c1cc(-c2cnc(N3C[C@@H](C)O[C@@H](C)C3)nc2)c2c(c1C)OC(C)([C@H]1CC[C@H](N(C)CC(F)(F)F)CC1)O2` (stereo partly drawn) [Compound 23, 7-(2-((2S,6R)-2,6-dimethylmorpholino)pyrimidin-5-yl)-2,4-dimethyl-2-(trans-4-(methyl(2,2,2-trifluoroethyl)amino)cyclohexyl)-N-((6-methyl-4-(methylthio)-2-oxo-1,2-dihydropyridin-3-yl)methyl)benzo[d][1,3]dioxole-5-carboxamide], the inhibition at 0.005 µM was 31.4% against EZH1 and 34.2% against EZH2. Besides, the inhibition at 1 µM is not below 70% in the experiment on Lovo cells; 30 to 70% with G401 cells; not above 30% in the experiment with MKN-45 cells; not above 30% in the experiment on SW-13 cells; not above 30% with MIA-PaCa-2 cells; not above 30% in the experiment with NCI-H1299 cells.

As for `COC(CN1CCC(C2(C)Oc3c(-c4ccc(N5C[C@@H](C)O[C@@H](C)C5)nc4)cc(C(=O)NCc4c(SC)cc(C)[nH]c4=O)c(C)c3O2)CC1)OC` (stereo partly drawn) [Compound 41, 2-(1-(2,2-dimethoxyethyl)piperidin-4-yl)-7-(6-((2S,6R)-2,6-dimethylmorpholino)pyridin-3-yl)-2,4-dimethyl-N-((6-methyl-4-(methylthio)-2-oxo-1,2-dihydropyridin-3-yl)methyl)benzo[d][1,3]dioxole-5-carboxamide], the inhibition at 0.005 µM at EZH1 worked out at 69.1%; against EZH2, 96.8%. For the same molecule, the inhibition at 1 µM in the experiment with Lovo cells is not below 70%; in the experiment with G401 cells, not below 70%; in the experiment on MKN-45 cells, not above 30%; in the experiment with SW-13 cells, not above 30%; in the experiment with MIA-PaCa-2 cells, not above 30%; in the experiment with NCI-H1299 cells, not above 30%.

For the molecule `CSc1cc(C)[nH]c(=O)c1CNC(=O)c1cc(-c2ccc(N3C[C@@H](C)O[C@@H](C)C3)nc2)c2c(c1C)OC(C)(C1CCN(CC(F)(F)F)CC1)O2` (stereo partly drawn) [Compound 33, 7-(6-((2S,6R)-2,6-dimethylmorpholino)pyridin-3-yl)-2,4-dimethyl-N-((6-methyl-4-(methylthio)-2-oxo-1,2-dihydropyridin-3-yl)methyl)-2-(1-(2,2,2-trifluoroethyl)piperidin-4-yl)benzo[d][1,3]dioxole-5-carboxamide], the inhibition at 0.005 µM against EZH1 is 37.6%; at EZH2, 59.1%. Further, the inhibition at 1 µM is not below 70% with Lovo cells; not below 70% in the experiment on G401 cells; 30 to 70% in the experiment on MKN-45 cells; 30 to 70% in the experiment with SW-13 cells; not above 30% with MIA-PaCa-2 cells; not above 30% in the experiment on NCI-H1299 cells.

For `CSc1cc(C)[nH]c(=O)c1CNC(=O)c1cc(-c2ccc(N3C[C@@H](C)O[C@@H](C)C3)nc2)c2c(c1C)OC(C)([C@H]1CC[C@H](N(C)CC(F)F)CC1)O2` (stereo partly shown) [Compound 109], the values for the inhibition at 0.005 µM against EZH1 and at EZH2 were 22% and 52.4%, respectively. The inhibition at 0.01 µM against EZH1 worked out at 35.2%; at EZH2 it was 91.6%. Further, the inhibition at 1 µM is not below 70% in the experiment with Lovo cells; not below 70% in the experiment on G401 cells; 30 to 70% in the experiment with MKN-45 cells; 30 to 70% in the experiment with SW-13 cells; not above 30% in the experiment on MIA-PaCa-2 cells; not above 30% in the experiment on NCI-H1299 cells.

What is called inhibition is the change of the read-out against control, counted positive when it falls.
